# Results taken from patent publication US11878012B2, “Compositions and methods for treating traumatic brain injury” (Board of Regents, the University of Texas System, priority 2020, dated 2024).
# Experiments:
# [1] = tested on: seizure susceptibility; assay: PTZ kindling after sham or CCI-TBI; conditions: M084 10 mg/kg s.c. 1 hour before each PTZ 35 mg/kg, from 7 days after surgery
# Description: The fact that only a portion of TBI cases become susceptible to epileptic seizures is a yet unanswered phenomenon in both preclinical and clinical studies. Therefore, we investigated seizure susceptibility within the CCI-TBI model to gain a greater understanding as to the etiology of hyperexcitability spread occurring post-injury. […] In our seizure susceptibility paradigm, 1 or 7 days after experimental procedure, mice were challenged with a subconvulsant dose of PTZ (35 mg/kg s.c.) once-daily to elicit kindling epileptogenesis (FIG. 6A). The progression of motor seizure behavior was observed and timed by direct observation linked to EEG activity (FIG. 6B).
# We wished to understand if the TRPC channel upregulation after TBI could be targeted to impede epileptogenic activity. […] Seizure susceptibility was standardized according to the latency to forelimb clonus lasting greater than 5 sec.
# Controlled cortical impact traumatic brain injury. The controlled cortical impact (CCI) traumatic brain injury (TBI) model was applied, with a closed skull impact approach. The CCI model causes TBI, but the skull remains intact with minimal hematoma. This type of brain injury model most closely simulates the TBI experienced during blunt-head injuries from vehicular accidents or falls. Mice were anesthetized with isoflurane (3% induction, 1% maintenance) in 100% O2. Body temperature of 37° C. was maintained using a temperature-controlled heated surgical table. The skull was fixed with ear-bars into a stereotaxic frame. A small midline incision was made on the scalp using aseptic surgical techniques. Impact was delivered by cylindrical probe of 5 mm diameter with an Impact One neurotrauma impactor (Leica Biosystems). A calibrated impact was delivered at 4.5 m/sec to a depth of 1 mm and 0.5 sec dwell time to the right parietal cortex (−1.8 mm ML, +2.0 mm AP, −1.0 mm DV). […] The scalp was then sutured closed and mice were placed in a warming recirculation unit and monitored until fully awake and moving freely. […] For consistency, the left hemisphere of both sham and TBI mice is designated as “contralateral” brain, and the right hemisphere is referred to as “ipsilateral”, despite no impact injury occurring in sham mice.
# In vivo electroencephalograms. To determine seizure frequency and record brain susceptibility to seizures, mice were implanted with electroencephalogram (EEG) electrodes 24 hr after sham or TBI. A three-channel tethered EEG system was used. The electrode pedestal (P1 Technologies) was secured to the skull with three anchored dental screws and connected to a preamplifier with gain of 25. The three leads were inserted over the left frontal cortex, left parietal cortex, and depth electrode lead into the hippocampus. The Stellate Harmonie acquisition hardware and software were used to collect coincident video and EEG activity. EEGs were inspected for presence of epileptiform spikes and seizures.
# Seizure susceptibility assays. Pentylenetetrazol kindling model. Seizure susceptibility was tested with the GABAA receptor antagonist pentylenetetrazol (PTZ) for progression of motor seizure activity. Mice were injected with PTZ (35 mg/kg, s.c.) once per day and scored for motor behavioral seizures.
# [2] = tested on: DGGCs; assay: Ca2+ imaging with calcium green-1 in DGGCs of hippocampal slices, whole-cell mode; assay type: cell-based, mice; conditions: M084 and ML204 together, 10 μm
# Description: (§1) Hippocampal Slice Preparation. […] Hippocampal slices were maintained in oxygenated ACSF at 30° C. for 60 min and experiments were performed at 25° C.
# Ca2^+ Imaging. Concurrent with patch-clamp electrophysiology, neurons in slices were also imaged (Nikon FN-1, 40× water-immersion objective) via the fluorescent Ca^2+-reporter dye calcium green-1. As a hexapotassium salt, the dye (10 μm) was added to the intracellular patch pipette solution and neurons were patched under whole-cell clamp, as described above. Cells were loaded for 10 min before image acquisition. Fluorescence intensity was obtained using a SOLA Light Engine illumination source (Lumencor) with an output of 3.5 W through a 3-mm-diameter liquid light guide through a Nikon ET-GFP filter. Nikon Elements software was used for image acquisition through a QIClick CCD camera (QImaging). Images were acquired with an exposure time of 200 ms every 2 min using a single-channel, 12-bit rate and no binning. The shutter was closed between each acquisition. For each cell, the corrected total cell fluorescence was measured as the integrated density intensity—(cell area*mean background emission). Ca^2+ signals were measured as the change in fluorescence relative to the baseline fluorescence (ΔF/F0). Averages of four images were thresholded at 10%, masked using a highly averaged image of the cell, and encoded with a pseudocolor look-up table. Group cell fluorescence data were averaged in comparison with normalized intensity at each time point.
# [3] = molecular target: T1, TRPC3 (Homo sapiens, UniProt Q13507); conditions: description; cited from earlier work
# T1 sequence (Q13507 1-921): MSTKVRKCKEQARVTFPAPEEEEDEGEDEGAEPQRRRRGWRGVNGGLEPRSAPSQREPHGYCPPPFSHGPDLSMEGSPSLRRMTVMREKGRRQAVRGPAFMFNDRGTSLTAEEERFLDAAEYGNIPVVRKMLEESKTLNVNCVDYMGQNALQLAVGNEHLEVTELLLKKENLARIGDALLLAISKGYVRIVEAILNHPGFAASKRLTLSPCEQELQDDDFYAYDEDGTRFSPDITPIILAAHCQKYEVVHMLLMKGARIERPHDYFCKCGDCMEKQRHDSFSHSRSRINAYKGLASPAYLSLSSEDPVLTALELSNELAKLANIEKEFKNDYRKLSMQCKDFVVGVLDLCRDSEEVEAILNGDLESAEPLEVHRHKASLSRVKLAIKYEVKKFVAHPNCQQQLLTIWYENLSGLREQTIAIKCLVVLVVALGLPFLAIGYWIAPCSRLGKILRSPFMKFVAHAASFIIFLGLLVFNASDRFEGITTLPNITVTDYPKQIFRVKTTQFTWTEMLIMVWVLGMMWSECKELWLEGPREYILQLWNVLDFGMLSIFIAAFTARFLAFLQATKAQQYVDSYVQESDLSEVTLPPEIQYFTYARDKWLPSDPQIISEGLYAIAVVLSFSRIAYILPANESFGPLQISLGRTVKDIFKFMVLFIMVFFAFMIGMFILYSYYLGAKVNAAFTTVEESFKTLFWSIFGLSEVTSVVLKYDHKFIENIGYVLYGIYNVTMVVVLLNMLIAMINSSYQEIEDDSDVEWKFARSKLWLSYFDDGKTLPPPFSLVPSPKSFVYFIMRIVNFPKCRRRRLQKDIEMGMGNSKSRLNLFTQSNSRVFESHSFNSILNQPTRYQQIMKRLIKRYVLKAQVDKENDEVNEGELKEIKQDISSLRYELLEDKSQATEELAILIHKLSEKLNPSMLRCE
# [4] = tested on: DGGCs; assay: Patch-clamp / current-clamp recordings of DGGCs in hippocampal slices (action potentials, AHP, IM amplitude); assay type: cell-based, mice
# Description: as §1
# [5] = 2015, cited from earlier work
# [6] = TRPC4/5 channels blocked, control or plus 77-LH-28-1 3 μM
smiles,measurement,setting,value
"CCCCNc1nc2ccccc2[nH]1 [M084, N-butyl-1H-benzimidazol-2-amine]",days to clonic seizures,[1],10.6 ± 0.5 days
same,days to demonstrate myoclonic jerks,[1],7.3 ± 0.6 days
same,days to tonic-clonic seizure behavior,[1],11.0 ± 0.6 days
same,maximum calcium-green 1 emission on muscarinic stimulation,[2],1.61±0.21 fold
same,effect on TRPC3,[3],weak inhibitor or antagonist
same,action potential threshold,"[4]; M084 10 μm only, n=8 cells",−45.4±1.3 mV
same,action potential firing rate on M1R agonist,"[4]; TRPC4/5 blockade with M084 10 μm, 77-LH-28-1 3 μm",did not increase
same,AHP amplitude,[4]; [6],13.2 ± 0.7 mV
same,AHP area,[4]; [6],196.8 ± 13.3 ms* mV
same,AHP decay,[4]; [6],14.8 ± 0.7 ms
same,"membrane potential values (voltage floor), control ACSF vs 77-LH-28-1 3 μm",[4]; in presence of M084 10 μm,no significant differences
same,brain concentration at time of PTZ challenge,"[5]; 1 hour after M084 10 mg/kg s.c., inferred from Yang et al.",likely within the micromolar range
same,blood-brain barrier crossing,[5]; Yang et al.,crosses the blood-brain barrier
